The source of these data is patent publication US20110098180A1, “Herbicide-Resistant Plants, And Polynucleotides And Methods For Providing Same” (United States Department of Agriculture, priority 2002, published 2011).

Test [1] has as its target hydrilla PDS Arg^304 → Serine (Hydrilla verticillata, UniProt Q66PY0, R304S). As to the kind of experiment: Cross resistance to bleaching herbicides, in vitro PDS inhibition, non-His-tagged (Table 2). Particulars: Serine at 304; construct in frame with LacZalpha-ccdB, non-His-tagged; read-out: I50. The class given is biochemical. The procedure: (§1) The expression constructs in Table 2 were derived from an original clone of the susceptible PDS gene from Hydrilla and then the Arg^304 was mutated to the listed amino acid. Expression was under the control of the lac promoter but in frame with the initiation codon of the LacZalpha-ccdB gene in the pCR4-TOPO vector (Invitrogen Inc., CA, Cat. #K4575-01).
(§2) All mutagenesis was performed, unless stated otherwise, using the TOPO-vector containing the wildtype (H4) PDS-sequence, which was extracted from an overnight culture with the Qiagen Plasmid Prep Kit as described above. The amount of the extracted plasmid was diluted to 10 ng/μl and used as template in a mutagenesis-procedure using the QuikChange Site-directed Mutagenesis Kit (Stratagene, Calif., #200518). The design of the mutagenesis-primers was conducted according to the manufacturers protocol to enable the specific change of Arg^304-codon to code for the desired amino acid. Primers (purchased from MWG-Biotech) and their introduced amino acid change are listed below with the changed codon underlined:
(§3) The reactions were performed according to the manufacturers protocol. Reactions were set up in MicroAmp-tubes on ice with 38 μl ddH2O, 5 μl 10× reaction buffer, 2 μl plasmid (10 ng/μl), 1.25 μl forward-mutagenesis primer (100 ng/μl), 1.25 μl of reverse mutagenesis primer (100 ng/μl), 1 μl dNTP-mix and 1 μl PfuTurboDNA polymerase (2.5 U/μl). The reactions were placed in a PE 9700 thermal cycler and heated to 95° C. for 30 sec followed by 12 rounds at 95° C. for 30 sec, 55° C. for 1 min and 68° C. for 12 min. The PCR was followed by a DpnI-digestion and transformation in XL1-Blue supercompetent cells as described in the manual. 4-6 resulting colonies were grown overnight in LB-medium with kanamycin and plasmid DNA was isolated as described above. The plasmid was used as template for sequencing with M13 and internal PDS-primers as described above on a LiCOR-system. Sequences were assembled and analyzed using Seqman. Introduced mutations were identified and plasmids carrying the desired mutation(s) were transferred into competent TOP10-cells, using the transformation protocol from the TOPO TA Cloning Kit. Resulting colonies were grown overnight in Wu-broth with kanamycin, aliquoted and stored at −80° C. until further use. 1 ml of Wu-cultures was used to start 1-L LB-cultures with kanamycin as described before, to express active PDS-enzyme for testing as described.
(§4) Phytoene desaturase activity and its inhibition by herbicides was determined using an in vitro system using components derived from the in vivo production of phytoene and phytoene desaturase proteins. All mutations described in Examples 3 and 4 were tested. […] The clones were used for the heterologous expression of Hydrilla-PDS-enzyme. In particular, bacterial cultures were grown from single colonies overnight in Wu-broth (6.27 g/L K2HPO4, 1.8 g/L KH2PO4, 0.5 g/L Na-citrate, 0.9 g/L (NH4)2SO4, 10 g/L tryptone, 5 g/L yeast extract, 10 g/L NaCl, 44 ml/L glycerol, 0.1 mM MgSO4, pH 7.2) with kanamycin. 1-mL was aliquoted in centrifuge tube and stored at −80° C. For expression, 1 L LB-medium with kanamycin was inoculated with 1-mL Wu-culture and grown for 24 h at 37° C. to stationary phase with shaking at 200 rpm. The cells were collected by centrifugation at 2000×g. All of the following steps were done at 4° C. unless otherwise noted. Active soluble PDS enzyme was extracted by lysing the transformed E. coli cells using a French Press at 20,000 psi in assay buffer consisting of 100 mM Tris-HCl, pH 7.2, 10 mM magnesium-chloride, 0.1 mM NADP, 0.1 mM FAD, 10 mM cysteine, 5 mM DTT, 1 mM aminocaproic acid, and 1 μg/ml leupeptin. The soluble fraction containing PDS activity was obtained by centrifugation for 10 min at 1200×g. After 24 h they were centrifuged down and used in PDS enzyme activity assays as described below.

Test [2] addresses Hydrilla PDS Arg^304 → Threonine (Hydrilla verticillata, UniProt Q66PY0, R304T). The test is described as above. Particulars: Threonine at 304; construct in frame with LacZalpha-ccdB, non-His-tagged; read-out: I50. The class given is biochemical. The procedure:
as §1, §2, §3, §4

Test [3] deals with Hydrilla PDS Arg^304 → Threonine. Described as above. The following applies: Threonine at 304 relative to Arginine; Table 2. The class given is biochemical, Hydrilla verticillata. The procedure:
as §1, §2, §3, §4

Test [4] concerns Hydrilla PDS Arg^304 → Phenyalanine. As to the kind of experiment: Fluridone enzyme inhibition assay, non-His-tagged PDS (Table 1). It is filed as biochemical, Hydrilla verticillata. Particulars: relative to Arginine. Here is the method: (§5) The expression constructs in Table 1 were derived from an original clone of the susceptible PDS gene from Hydrilla and then the Arg^304 was mutated to the listed amino acid. Expression was under the control of the lac promoter […] with the initiation codon of the LacZalpha-ccdB gene in the pCR4-TOPO vector (Invitrogen Inc., CA, Cat. #K4575-01).
as §2, §3, §4

The test system of test [5] is Hydrilla PDS Arg^304 → Glutamine. The description is as above. The class given is biochemical, Hydrilla verticillata. The following applies: relative to Arginine. Here is the method:
as §5, §2, §3, §4

The subject of test [6] is Hydrilla PDS Arg^304 → Methionine. Described as above. The following applies: relative to Arginine. It is filed as biochemical, Hydrilla verticillata. The procedure:
as §5, §2, §3, §4

The test system of test [7] is Hydrilla PDS Arg^304 → Lysine. The test is described as above. It is filed as biochemical, Hydrilla verticillata. Particulars: relative to Arginine. The procedure: as §5, §2, §3, §4
Test [8] relates to Hydrilla PDS Arg^304 → Alanine. The test is described as above. The class given is biochemical, Hydrilla verticillata. The following applies: relative to Arginine. Here is the method:
as §5, §2, §3, §4

Test [9] relates to Hydrilla PDS Arg^304 → Glutamic acid. The test is described as above. The class given is biochemical, Hydrilla verticillata. The following applies: relative to Arginine. The procedure: as §5, §2, §3, §4
Test [10] deals with Hydrilla PDS Arg^304 → Asparagine. The test is described as above. The class given is biochemical, Hydrilla verticillata. The following applies: relative to Arginine. The procedure: as §5, §2, §3, §4
The test system of test [11] is Hydrilla PDS Arg^304 → Aspartic acid. The test is described as above. The class given is biochemical, Hydrilla verticillata. Particulars: relative to Arginine. Here is the method:
as §5, §2, §3, §4

Test [12] relates to Hydrilla PDS Arg^304 → Glycine. Described as above. It is filed as biochemical, Hydrilla verticillata. Particulars: relative to Arginine. Here is the method: as §5, §2, §3, §4
The test system of test [13] is Hydrilla PDS Arg^304 → Valine. The description is as above. The class given is biochemical, Hydrilla verticillata. The following applies: relative to Arginine. The procedure:
as §5, §2, §3, §4

For test [14], the system named is Hydrilla PDS Arg^304 → Isoleucine. The description is as above. It is filed as biochemical, Hydrilla verticillata. Particulars: relative to Arginine. Here is the method:
as §5, §2, §3, §4

In test [15] the test system is Hydrilla PDS Arg^304 → Threonine. The description is as above. It is filed as biochemical, Hydrilla verticillata. Particulars: relative to Arginine. The procedure: as §5, §2, §3, §4
The subject of test [16] is Hydrilla PDS Arg^304 → Tyrosine. The description is as above. Particulars: relative to Arginine. It is filed as biochemical, Hydrilla verticillata. The procedure: as §5, §2, §3, §4

Chain of hydrilla PDS Arg^304 → Serine (Q66PY0 1-580 R304S): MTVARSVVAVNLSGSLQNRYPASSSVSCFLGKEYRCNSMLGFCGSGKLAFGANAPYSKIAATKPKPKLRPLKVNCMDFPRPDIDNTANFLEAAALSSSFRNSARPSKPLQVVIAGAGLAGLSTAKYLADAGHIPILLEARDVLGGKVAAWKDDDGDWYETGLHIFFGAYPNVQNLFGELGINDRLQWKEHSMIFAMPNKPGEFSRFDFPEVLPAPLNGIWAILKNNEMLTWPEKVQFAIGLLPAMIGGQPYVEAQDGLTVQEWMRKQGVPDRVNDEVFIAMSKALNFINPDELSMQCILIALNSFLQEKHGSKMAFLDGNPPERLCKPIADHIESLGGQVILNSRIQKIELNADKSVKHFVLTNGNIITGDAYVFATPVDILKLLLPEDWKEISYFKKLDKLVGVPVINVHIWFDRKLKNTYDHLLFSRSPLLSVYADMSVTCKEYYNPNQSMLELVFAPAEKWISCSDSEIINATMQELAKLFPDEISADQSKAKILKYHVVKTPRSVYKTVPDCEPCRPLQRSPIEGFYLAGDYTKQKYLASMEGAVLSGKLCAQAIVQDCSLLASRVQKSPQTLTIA
Chain of Hydrilla PDS Arg^304 → Threonine (Hydrilla verticillata, UniProt Q66PY0, R304T) (Q66PY0 1-580 R304T): as the sequence (Q66PY0 1-580 R304S) above, with S304T counted along it

Take `CCC(Oc1ccc(F)c(C(F)(F)F)c1)C(=O)NCc1ccccc1` (stereo not shown) [Beflubutamid]: the IC50 was 2.6 µM in [1] and 1.2 µM in test [2]. The same molecule registered a R/S in test [3] of 0.3.

In the case of `O=C(Nc1ccc(F)cc1F)c1cccnc1Oc1cccc(C(F)(F)F)c1` [Diflufenican], the IC50 in [1] came to 1.1 µM; in test [2], 1 µM. For the same molecule, the R/S in test [3] is recorded as 0.2.

As for `O=C1C(Cl)C(CCl)CN1c1cccc(C(F)(F)F)c1` (stereo not shown) [Fluorochloridone], the IC50 worked out at 23 µM in test [1] and 52 µM in test [2]. In test [3], this molecule registered a R/S of 4.3.

Turning to `CNC1=C(c2cccc(C(F)(F)F)c2)C(=O)C(c2ccccc2)O1` (stereo not shown) [Flurtamone], the IC50 is 5.9 µM in test [1] and 8.1 µM in [2]. In addition, the R/S in [3] was found to be 2.9.

As to `CNc1cnn(-c2cccc(C(F)(F)F)c2)c(=O)c1Cl` [Norflurazon], the results for the IC50 in test [1] and in test [2] were 54.9 µM and 161 µM, respectively. In [3], the R/S came out at 52.0.

With `O=C(Nc1ccc(F)cc1)c1cccc(Oc2cccc(C(F)(F)F)c2)n1` [Piconilafen, Picolinafen], the IC50 in test [2] came to 2.7 µM. Also, the R/S in [3] is listed as 0.5.

For the molecule Fluridone, the R/S in test [3] is 10.0; in test [4] it was 2.6; in test [5], 19; in [6], 11.5; in [7], 5; in test [8] it was 22.5. For the same molecule, the R/S is reported as 1.5 in test [9]; 3.2 in test [10]; 10 in test [11]; 3.2 in test [12]; 11 in [13]; 10 in [14]. Besides, the results for the R/S in test [15] and in [16] were 40 and 4, respectively.
